Source: patent US20250197368A1 (priority 2020, published 2025)
Counter-ions that a name gives are not always drawn.

Experiments:
human α2β3γ2 GABAARs = experiment: In vitro electrophysiological recording assay (automated patch-clamp), α2-GABAAR relative efficacy; format: cell-based; details: % efficacy normalised to diazepam; GABA EC10-20; concentration generally >= 100 times Ki
Protocol: The efficacy of modulators was evaluated using the automated patch-clamp platforms QPatch16 (Sophion, Copenhagen, Denmark) or SyncroPatch 384PE (Nanion, Germany).
For QPatch electrophysiology testing L(tk^−) cells stably expressing human α1β3γ2, α2β3γ2, α3β3γ2, α5β3γ2 GABAARs were used. HEK293 cells stably expressing human α1β3γ2L, α2β3γ2L, α3β3γ2L and α5β3γ2L GABAARs were used for the SyncroPatch 384PE experiments.
All experiments were carried out at room temperature (20-22° C.) using a standard whole cell procedure and physiological solutions. Gigaseals were formed upon execution of a combined suction/voltage protocol with subsequent increased suction leading to the whole-cell configuration.
The currents recorded were acquired at either 1 KHz or 2 KHz and filtered using a Bessel filter. Whole-cell currents were measured at a holding potential of-65 mV (QPatch) or −80 mV (SyncroPatch).
For QPatch experiments, the extracellular solution contained of: 145 mM NaCl, 4 mM KCl, 1 mM MgCl2, 2 mM CaCl2), 10 mM HEPES, 10 mM D-glucose (pH 7.4), and the intracellular solution consisted of: 96 mM KCl, 28 mM CsCl, 25 mM KOH, 4.3 mM CaCl2), 1.4 mM MgCl2, 10 mM EGTA, 10 mM HEPES, 3 mM MgATP (pH 7.2). The osmolarities of the extracellular and intracellular solutions were 305 and 295 mOsm respectively.
For SyncroPatch experiments, the extracellular recording solution contained: 140 mM NaCl, 4 mM KCl, 2 mM CaCl2), 1 mM MgCl2, 10 mM HEPES, 5 mM glucose (pH 7.4 with NaOH and osmolarity of c. 300-310 mOsm). The intracellular recording solution consisted of: 90 mM KCl, 50 mM KF, 1.5 mM MgCl2, 11.1 mM EGTA and 10 mM HEPES (pH 7.2 with KOH and osmolarity of c. 300 mOsm). 2 mM of NaATP was added to the intracellular solution on the day of testing.
The effects of modulators were evaluated in the presence of a submaximal GABA concentration, giving typically less than 30% activation of the response elicited by a saturating GABA concentration. To check and ensure baseline current stability before compound addition, two to five consecutive applications of GABA EC10-20 separated by wash steps were performed before compound addition. The test compound was applied 1 min at least prior to co-application with GABA EC10-20. Following a further wash step, a saturating concentration of GABA was applied at the end of each recording, allowing the accurate evaluation for each cell of the percentage baseline activation elicited by the submaximal GABA applied.
The compounds were first dissolved in DMSO as a 10 mM stock and then further diluted to the testing concentrations so that the final DMSO concentration in the extracellular recording solution was 0.1% (QPatch) or 0.2% (SyncroPatch).
The % efficacy of modulators was determined from the GABA elicited currents recorded in the presence and absence of the test compound, using the formula:
[((compound peak current−leak)−(GABA peak current-leak))/(GABA peak current−leak)]*100,
where ‘leak’ is the leak baseline current at the holding potential, ‘compound peak current’ is the current elicited by co-application of compound and GABA, and ‘GABA peak current’ is the current elicited by GABA alone at the last GABA application before compound addition. The results were presented as ‘relative efficacy’ for each compound generally at a concentration equal or higher than 100 times their determined Ki. The relative efficacy of a compound was calculated by normalising its % efficacy to the corresponding % efficacy of diazepam that was separately determined.

[1] = molecular target: human α2β3γ2 GABAARs (benzodiazepine site) (Homo sapiens (Human), UniProt P18507+P47869); experiment: In vitro radioligand binding assay ([3H]Ro15-1788 displacement), α2-GABAAR Ki
human α2β3γ2 GABAARs (benzodiazepine site), sequence (P47869 29-451): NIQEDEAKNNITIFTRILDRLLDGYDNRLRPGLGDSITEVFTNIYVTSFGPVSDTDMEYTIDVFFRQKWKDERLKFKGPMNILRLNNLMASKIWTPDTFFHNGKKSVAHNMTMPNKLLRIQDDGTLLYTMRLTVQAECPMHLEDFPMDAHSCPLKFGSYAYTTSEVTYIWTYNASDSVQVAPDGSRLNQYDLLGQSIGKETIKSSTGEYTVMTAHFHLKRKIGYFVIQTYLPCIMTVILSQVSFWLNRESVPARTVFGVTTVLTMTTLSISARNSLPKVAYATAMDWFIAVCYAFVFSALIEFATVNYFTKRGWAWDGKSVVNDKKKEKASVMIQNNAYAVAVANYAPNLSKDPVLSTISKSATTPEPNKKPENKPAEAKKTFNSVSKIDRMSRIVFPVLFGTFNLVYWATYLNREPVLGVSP
human α2β3γ2 GABAARs (benzodiazepine site), sequence (P28472 26-473 partner): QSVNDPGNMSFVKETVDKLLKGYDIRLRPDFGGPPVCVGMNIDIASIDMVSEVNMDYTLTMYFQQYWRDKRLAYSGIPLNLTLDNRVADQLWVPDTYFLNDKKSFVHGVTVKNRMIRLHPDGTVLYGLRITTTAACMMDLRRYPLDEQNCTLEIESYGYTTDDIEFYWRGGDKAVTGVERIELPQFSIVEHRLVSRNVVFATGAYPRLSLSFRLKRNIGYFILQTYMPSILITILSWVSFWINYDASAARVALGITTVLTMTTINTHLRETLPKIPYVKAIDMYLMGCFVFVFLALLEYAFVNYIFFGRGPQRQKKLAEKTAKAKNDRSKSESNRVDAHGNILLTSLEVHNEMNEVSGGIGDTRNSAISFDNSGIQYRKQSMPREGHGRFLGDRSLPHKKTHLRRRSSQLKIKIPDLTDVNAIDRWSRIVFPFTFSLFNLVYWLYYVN
human α2β3γ2 GABAARs (benzodiazepine site), sequence (P18507 40-475): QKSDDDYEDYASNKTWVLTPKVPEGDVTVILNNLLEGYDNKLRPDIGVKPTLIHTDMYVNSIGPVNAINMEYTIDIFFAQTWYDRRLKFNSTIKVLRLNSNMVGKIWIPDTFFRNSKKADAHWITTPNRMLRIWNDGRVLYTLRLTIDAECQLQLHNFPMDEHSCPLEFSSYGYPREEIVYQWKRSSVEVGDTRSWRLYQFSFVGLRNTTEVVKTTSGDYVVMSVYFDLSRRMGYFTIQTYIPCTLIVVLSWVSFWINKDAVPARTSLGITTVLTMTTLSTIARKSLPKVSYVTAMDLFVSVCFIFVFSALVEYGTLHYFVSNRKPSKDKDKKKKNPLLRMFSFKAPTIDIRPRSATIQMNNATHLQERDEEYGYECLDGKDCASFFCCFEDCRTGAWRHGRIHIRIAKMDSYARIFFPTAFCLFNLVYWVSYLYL
Protocol: The affinity (Ki) of compounds for the benzodiazepine site of human recombinant GABAARs was measured by their ability to inhibit the binding of the selective benzodiazepine antagonist [^3H]Ro15-1788 ([^3H] flumazenil).
Mouse L(tk^−) cells stably expressing human α1β3γ2, α2β3γ2, α3β3γ2, α5β3γ2 GABAARs were generated by transfection of the individual subunits in the dexamethasone-inducible expression vector pMSGneo in mouse L(tk^−) cells (Hadingham et al., 1993, Mol. Pharmacol. 43:970-975 and 1993, Mol. Pharmacol. 44:1211-1218).
L(tk^−) cells stably expressing human α1β3γ2, α2β3γ2, α3β3γ2, α5β3γ2 GABAARs were maintained in DMEM F12 medium supplemented with 10% Foetal Bovine Serum, 1% Penicillin/Streptomycin and 1 mg/mL Geneticin G418 in an incubator at 37° C. with a humidified atmosphere with 5% CO2. Dexamethasone was added to the culture medium to induce GABAAR expression.
L(tk−) cells were harvested and membranes were prepared for each receptor combination in either TE buffer (10 mM Tris·CI/0.1 mM EDTA, pH 7.5) or phosphate buffer (K2PO4 10 mM, pH 7.0) (Hadingham et al. (1992) Proc. Natl. Acad. Sci. USA; 89 (14): 6378-82). Protein concentration, receptor expression and the Kd of [^3H]Ro15-1788 were determined before Ki value of the compounds were evaluated. For Kd evaluation, saturation binding curves were obtained by incubating membrane with various concentrations of [^3H]Ro15-1788 (82.5 Ci/mM), with nonspecific binding measured in the presence of 1-3 μM TP003.
For Ki evaluation, cell membranes were incubated with 4 nM [^3H]Ro15-1788 along with a range of concentrations of test compound. Nonspecific binding was determined using 1-3 μM TP003. All incubations were performed for 1 hour at 4° C. in assay buffer. The total assay volume was 0.5 mL, containing 40 μg/well α1β3γ2, 30 μg/well α2β3γ2, 40 μg/well α3β3γ2 and 30 μg/well for α5β3γ2 of membrane protein. Incubations were terminated by filtration and washing with ice cold Tris-HCl buffer (50 mM, pH=7.4) over Whatman GF/B filters and the radioactivity of the filters was measured using liquid scintillation counting.
The % inhibition of [^3H]Ro15-1788 binding was plotted as a function of compound concentration and the IC50 calculated. From the IC50, the affinity (Ki) was calculated using the method of Cheng and Prusoff using the Kd values obtained for [^3H]Ro15-1788.

| Compound | α2-GABAAR Relative Efficacy (vs. Diazepam) (human α2β3γ2 GABAARs) | Ki [1] [nM] |
| --- | --- | --- |
| CCCNC(=O)c1c(N)c2cccc(-c3cc(OCc4cc(C#N)ccn4)ccc3F)c2[nH]c1=O [Example 101, 4-Amino-8-[5-[(4-cyano-2-pyridyl)methoxy]-2-fluoro-phenyl]-2-oxo-N-propyl-1H-quinoline-3-carboxamide] | 0.31 | 0.19 |
| CCCNC(=O)c1c(N)c2cccc(-c3cc(OCc4ccc(F)cc4C#N)ccc3F)c2[nH]c1=O [Example 114, 4-Amino-8-[5-[(2-cyano-4-fluoro-phenyl)methoxy]-2-fluoro-phenyl]-2-oxo-N-propyl-1H-quinoline-3-carboxamide] | 0.38 | 0.73 |
| CCCNC(=O)c1c(N)c2cccc(-c3cc(OCc4ccc(C#N)cc4OC)ccc3F)c2[nH]c1=O [Example 115, 4-Amino-8-[5-[(4-cyano-2-methoxy-phenyl)methoxy]-2-fluoro-phenyl]-2-oxo-N-propyl-1H-quinoline-3-carboxamide] | 0.34 | 2.01 |
| CCCNC(=O)c1c(N)c2cccc(-c3cc(OCC4COC4)ccc3F)c2[nH]c1=O [Example 136, 4-Amino-8-[2-fluoro-5-(oxetan-3-ylmethoxy)phenyl]-2-oxo-N-propyl-1H-quinoline-3-carboxamide] | 0.24 | 0.9 |
| COc1ccncc1-c1cccc2c(N)c(C(=O)NCCC(F)F)c(=O)[nH]c12 [Example 68, 4-Amino-N-(3,3-difluoropropyl)-8-(4-methoxy-3-pyridyl)-2-oxo-1H-quinoline-3-carboxamide] | 0.54 | 4.88 |
| CCCNC(=O)c1c(N)c2cccc(-c3cc(OCc4ccoc4)ccc3F)c2[nH]c1=O [Example 116, 4-Amino-8-(2-fluoro-5-(furan-3-ylmethoxy)phenyl)-2-oxo-N-propyl-1,2-dihydroquinoline-3-carboxamide] | 0.42 | 1.17 |
| CCCNC(=O)c1c(N)c2cccc(-c3nc(OCC)ccc3F)c2[nH]c1=O [Example 9, 4-Amino-8-(6-ethoxy-3-fluoropyridin-2-yl)-2-oxo-N-propyl-1,2-dihydroquinoline-3-carboxamide] | 0.23 | 0.25 |
| CCCNC(=O)c1c(N)c2cccc(-c3cc(OCc4cn(C)cn4)ccc3F)c2[nH]c1=O [Example 126, hydrochloride] | 0.27 | 1.19 |
| CCCNC(=O)c1c(N)c2cccc(-c3cccc(C(F)F)n3)c2[nH]c1=O [Example 3, 4-Amino-8-[6-(difluoromethyl)-2-pyridyl]-2-oxo-N-propyl-1H-quinoline-3-carboxamide] | 0.29 | 1.99 |
| CCCNC(=O)c1c(N)c2cccc(-c3cc(COc4ccc(C)nc4)ccc3F)c2[nH]c1=O [Example 112, 4-Amino-8-[2-fluoro-5-[(6-methyl-3-pyridyl)oxymethyl]phenyl]-2-oxo-N-propyl-1H-quinoline-3-carboxamide] | 0.11 | 0.57 |
| CCCNC(=O)c1c(N)c2cccc(-c3cc(OCc4ccc(C)cn4)ccc3F)c2[nH]c1=O [Example 95, 4-Amino-8-[2-fluoro-5-[(5-methyl-2-pyridyl)methoxy]phenyl]-2-oxo-N-propyl-1H-quinoline-3-carboxamide] | 0.22 | 0.44 |
| CCCNC(=O)c1c(N)c2cccc(-c3cc(OCc4ccc(C(F)(F)F)cn4)ccc3F)c2[nH]c1=O [Example 98, 4-Amino-8-[2-fluoro-5-[[5-(trifluoromethyl)-2-pyridyl]methoxy]phenyl]-2-oxo-N-propyl-1H-quinoline-3-carboxamide] | 0.29 | 0.61 |
| CCCNC(=O)c1c(N)c2cccc(-c3cc(OCc4ccnnc4)ccc3F)c2[nH]c1=O [Example 106, 4-Amino-8-[2-fluoro-5-(pyridazin-4-ylmethoxy)phenyl]-2-oxo-N-propyl-1H-quinoline-3-carboxamide] | 0.22 | 0.41 |
